Data as given in article PMC3945162 (Psychopharmacology, 2013).
Values joined by “and” are separate entries in the source; they are usually repeats but may differ in a detail not shown here. Identical values can stand only once. Like-named read-outs stand apart in the source and are kept apart here.

Columns and labels:
hDAT [1] = target: T1, hDAT (Homo sapiens, UniProt Q01959); assay: [125I]RTI-55 binding, HEK-hDAT cells
human 5-HT2A receptor [2] = target: T2, human 5-HT2A receptor (Homo sapiens, UniProt P28223); assay: IP-1 formation, HEK-5-HT2A cells; format: cell-based; conditions: for Emax: read-out: 5-HT2A Function IP-1 formation % maximal effect
human 5-HT2A receptor [3] = target: T2, human 5-HT2A receptor; assay: [3H]AA release from HEK-5-HT2A cells; format: cell-based; conditions: for Emax: read-out: 5-HT2A Function [3H]AA release % maximal effect
[4] = test system: rats trained to discriminate LSD (0.1 mg/kg) from saline; format: in vivo, rat; conditions: LSD-trained rats, 15 min pretreatment; for Maximum %DAR (drug-appropriate responding): i.p., at dose of maximum DAR
[5] = test system: rats trained to discriminate DMT (5 mg/kg) from saline; format: in vivo, rat; conditions: DMT-trained rats; 15 min pretreatment
Male Swiss–Webster mice = assay: Locomotor activity; format: in vivo, mouse; conditions: mice, i.p.
Male Sprague-Dawley rats = assay: Adverse effects observed during drug discrimination test sessions; format: in vivo, rat
[6] = test system: rats trained to discriminate METH (1 mg/kg) from saline; format: in vivo, rat; conditions: METH-trained rats, 15 min pretreatment
hSERT [7] = target: T3, hSERT (Homo sapiens, UniProt P31645); assay: [3H]Serotonin release, HEK-hSERT cells; format: cell-based
human 5-HT1A receptor [8] = target: T4, human 5-HT1A receptor (Homo sapiens, UniProt P08908); assay: [35S]GTPγS binding functional assay, HEK-5-HT1A; format: biochemical; conditions: for Emax: read-out: 5-HT1A Function [35S]GTPγS Binding % maximal effect
T4 sequence (P08908 1-422): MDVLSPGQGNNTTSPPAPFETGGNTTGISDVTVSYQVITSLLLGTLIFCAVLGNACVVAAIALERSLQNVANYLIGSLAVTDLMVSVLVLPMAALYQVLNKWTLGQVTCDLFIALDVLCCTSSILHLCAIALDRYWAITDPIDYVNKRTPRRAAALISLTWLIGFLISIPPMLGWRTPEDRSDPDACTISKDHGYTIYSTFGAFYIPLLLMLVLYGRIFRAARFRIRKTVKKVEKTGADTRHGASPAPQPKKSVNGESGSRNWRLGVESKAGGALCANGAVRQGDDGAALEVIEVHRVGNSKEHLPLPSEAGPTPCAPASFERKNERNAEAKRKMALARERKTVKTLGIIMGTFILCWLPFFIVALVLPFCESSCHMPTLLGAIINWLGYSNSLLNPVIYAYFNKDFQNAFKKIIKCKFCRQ

hSERT [9] = target: T3, hSERT; assay: [3H]Serotonin uptake, HEK-hSERT cells; format: cell-based
hDAT [10] = target: T1, hDAT; assay: [3H]Dopamine uptake, HEK-hDAT cells; format: cell-based
human 5-HT2A receptor [11] = target: T2, human 5-HT2A receptor; assay: [125I]DOI binding, HEK-5-HT2A cells
hNET [12] = target: T5, hNET (Homo sapiens, UniProt P23975); assay: cell-based
[13] = test system: rats trained to discriminate MDMA (1.5 mg/kg) from saline; format: in vivo, rat; conditions: for Rate of responding at dose of maximum DAR / Maximum %DAR (drug-appropriate responding): MDMA-trained rats, 15 min pretreatment; for Maximum %DAR (drug-appropriate responding): i.p., at dose of maximum DAR
[14] = test system: rats trained to discriminate DOM (0.5 mg/kg) from saline; format: in vivo, rat; conditions: 15 min pretreatment
hSERT [15] = target: T3, hSERT; assay: [125I]RTI-55 binding, HEK-hSERT cells
hDAT [16] = target: T1, hDAT; assay: [3H]Dopamine release, HEK-hDAT cells; format: cell-based; conditions: HEK-hDAT cells
hNET [17] = target: T5, hNET; assay: biochemical; format: binding
hNET [18] = target: T5, hNET; assay: cell-based; remark: listed apart in the source
human 5-HT2C receptor [19] = target: T6, human 5-HT2C receptor (Homo sapiens, UniProt P28335); assay: biochemical; format: binding
T6 sequence (P28335 33-458): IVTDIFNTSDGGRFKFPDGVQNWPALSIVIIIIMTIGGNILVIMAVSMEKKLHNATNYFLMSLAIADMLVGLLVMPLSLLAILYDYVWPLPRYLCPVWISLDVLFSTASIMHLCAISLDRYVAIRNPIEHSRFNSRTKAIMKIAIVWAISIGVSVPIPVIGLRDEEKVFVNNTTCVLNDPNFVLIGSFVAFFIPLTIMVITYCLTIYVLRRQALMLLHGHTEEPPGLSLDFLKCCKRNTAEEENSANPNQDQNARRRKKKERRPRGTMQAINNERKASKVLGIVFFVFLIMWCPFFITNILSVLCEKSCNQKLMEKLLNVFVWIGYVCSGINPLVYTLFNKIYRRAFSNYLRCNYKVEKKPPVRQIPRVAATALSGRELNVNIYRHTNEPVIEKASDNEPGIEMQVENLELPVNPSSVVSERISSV

human 5-HT2C receptor [20] = target: T6, human 5-HT2C receptor; assay: cell-based; conditions: for Emax: read-out: 5-HT2C Function IP-formation % maximal effect
human 5-HT1A receptor [21] = target: T4, human 5-HT1A receptor; assay: [3H]8-OH-DPAT binding, HEK-5-HT1A
[22] = normalized to the maximal effect of serotonin

T1 sequence (Q01959 whole entry): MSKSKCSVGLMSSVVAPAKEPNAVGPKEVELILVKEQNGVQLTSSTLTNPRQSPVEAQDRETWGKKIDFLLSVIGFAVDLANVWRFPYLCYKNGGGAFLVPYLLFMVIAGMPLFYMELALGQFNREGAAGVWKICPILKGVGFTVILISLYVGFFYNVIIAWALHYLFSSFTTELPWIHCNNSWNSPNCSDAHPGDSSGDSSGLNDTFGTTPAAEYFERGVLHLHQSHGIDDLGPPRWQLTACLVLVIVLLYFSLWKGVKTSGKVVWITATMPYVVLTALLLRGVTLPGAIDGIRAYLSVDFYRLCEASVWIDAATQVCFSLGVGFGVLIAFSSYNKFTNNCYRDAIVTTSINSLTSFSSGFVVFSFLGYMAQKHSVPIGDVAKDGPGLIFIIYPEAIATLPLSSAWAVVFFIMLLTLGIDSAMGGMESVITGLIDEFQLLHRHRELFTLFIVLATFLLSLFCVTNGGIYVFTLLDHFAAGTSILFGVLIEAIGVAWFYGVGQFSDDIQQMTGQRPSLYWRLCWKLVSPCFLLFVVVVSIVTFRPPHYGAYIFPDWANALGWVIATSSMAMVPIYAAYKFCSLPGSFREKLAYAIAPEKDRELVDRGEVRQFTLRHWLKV
T2 sequence (P28223 whole entry): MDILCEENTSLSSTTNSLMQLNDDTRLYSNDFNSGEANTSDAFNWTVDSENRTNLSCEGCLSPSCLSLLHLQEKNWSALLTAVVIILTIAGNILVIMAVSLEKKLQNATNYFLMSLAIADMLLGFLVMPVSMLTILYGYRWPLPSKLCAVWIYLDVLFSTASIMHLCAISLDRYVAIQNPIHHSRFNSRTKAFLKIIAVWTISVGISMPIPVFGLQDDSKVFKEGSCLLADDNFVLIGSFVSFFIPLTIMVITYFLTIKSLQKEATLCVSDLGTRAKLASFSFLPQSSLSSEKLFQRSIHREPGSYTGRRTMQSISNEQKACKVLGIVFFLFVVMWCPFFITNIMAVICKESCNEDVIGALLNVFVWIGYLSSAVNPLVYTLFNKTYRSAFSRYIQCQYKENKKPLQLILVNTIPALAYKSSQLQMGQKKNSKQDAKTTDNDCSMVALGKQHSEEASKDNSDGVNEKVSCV
T3 sequence (P31645 whole entry): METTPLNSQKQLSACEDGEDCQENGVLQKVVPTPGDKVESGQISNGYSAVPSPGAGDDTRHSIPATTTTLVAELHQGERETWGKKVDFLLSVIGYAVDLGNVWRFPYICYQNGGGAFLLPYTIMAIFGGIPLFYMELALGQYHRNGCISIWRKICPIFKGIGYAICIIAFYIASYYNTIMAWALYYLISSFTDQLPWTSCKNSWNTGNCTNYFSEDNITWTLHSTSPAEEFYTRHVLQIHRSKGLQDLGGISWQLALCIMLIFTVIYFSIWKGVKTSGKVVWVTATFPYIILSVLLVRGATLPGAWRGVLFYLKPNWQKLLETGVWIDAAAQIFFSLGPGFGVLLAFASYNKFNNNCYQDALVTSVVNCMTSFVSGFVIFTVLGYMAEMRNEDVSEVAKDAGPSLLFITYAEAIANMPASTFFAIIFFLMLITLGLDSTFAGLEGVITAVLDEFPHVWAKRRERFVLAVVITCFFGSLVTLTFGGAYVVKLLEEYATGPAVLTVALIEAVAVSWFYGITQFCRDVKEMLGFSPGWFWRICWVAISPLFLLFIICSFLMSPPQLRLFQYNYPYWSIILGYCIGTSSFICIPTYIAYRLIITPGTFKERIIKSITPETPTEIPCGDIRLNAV
T5 sequence (P23975 whole entry): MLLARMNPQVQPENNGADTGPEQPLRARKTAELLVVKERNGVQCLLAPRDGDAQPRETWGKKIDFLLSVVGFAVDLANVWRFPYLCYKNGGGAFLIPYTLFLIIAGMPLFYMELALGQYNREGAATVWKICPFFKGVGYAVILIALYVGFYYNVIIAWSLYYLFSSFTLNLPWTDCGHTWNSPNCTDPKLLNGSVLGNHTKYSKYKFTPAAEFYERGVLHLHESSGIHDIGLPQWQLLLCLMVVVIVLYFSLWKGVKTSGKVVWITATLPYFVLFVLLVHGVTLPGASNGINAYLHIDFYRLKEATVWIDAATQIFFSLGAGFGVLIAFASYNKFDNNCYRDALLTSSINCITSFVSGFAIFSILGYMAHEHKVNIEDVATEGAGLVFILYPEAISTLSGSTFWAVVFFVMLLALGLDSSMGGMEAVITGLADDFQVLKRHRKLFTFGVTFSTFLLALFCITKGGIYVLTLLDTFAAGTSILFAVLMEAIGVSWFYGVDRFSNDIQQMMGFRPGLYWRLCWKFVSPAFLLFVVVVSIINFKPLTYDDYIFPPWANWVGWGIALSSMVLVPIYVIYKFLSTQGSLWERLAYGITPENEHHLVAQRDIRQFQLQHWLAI

SMILES | Ki (hDAT [1]) [µM] | EC50 (human 5-HT2A receptor [2]) [µM] | Emax (human 5-HT2A receptor [2]) [%] | EC50 (human 5-HT2A receptor [3]) [µM] | Emax (human 5-HT2A receptor [3]) [%] | Rate of responding at dose of maximum DAR [4] [resp/s] | Rate of responding at dose of maximum DAR [5] [resp/s] | Duration of depressant effects (Male Swiss–Webster mice) [min] | Rate of responding at dose of maximum DAR [6] [resp/s] | [3H]Serotonin release % PCA maximal effect (hSERT [7]) | Emax (human 5-HT1A receptor [8]) [%] | IC50 (hSERT [9]) [µM] | IC50 (hDAT [10]) [µM] | Ki (human 5-HT2A receptor [11]) [µM] | IC50 (hNET [12]) [µM] | Rate of responding at dose of maximum DAR [13] [resp/s] | Ki (hSERT [15]) [µM] | [3H]Dopamine release % METH maximal effect (hDAT [16]) | Ki (human 5-HT1A receptor [21]) [µM] | EC50 (human 5-HT1A receptor [8]) [µM] | also measured
CCc1cc(OC)c(CCN)cc1OC [2C-E, 2,5-dimethoxy-4-ethylphenethylamine] | > 10 | 0.084 ± 0.016 | 125 ± 13 | 0.0071 ± 0.0033 | 65 ± 11 | 0.413±0.061 | 0.466±0.166 | 50 to 70 | 0.228±0.024 | ND Minimal | < 20 | > 7.5 | > 10 | 0.0045 ± 0.00071 | > 9.8 | 0.053±0.036 | > 10 | ND Minimal |  |  | Maximum %DAR (drug-appropriate responding) [4]: 97±3 %; Duration of stimulant effects (Male Swiss–Webster mice): 70 to 100 min; Onset of depressant effects (within, after injection) (Male Swiss–Webster mice): ≤ 10 min; Onset of stimulant effects (within, after injection) (Male Swiss–Webster mice): ≤ 50 min; Adverse effect observed (Male Sprague-Dawley rats; 10 mg/kg, MDMA-trained rats): Loss of muscle tone; Effect on responding (Male Sprague-Dawley rats; 25 mg/kg): completely suppressed responding; Maximum %DAR (drug-appropriate responding) [13]: 100±0 %; Rate of responding at dose of maximum DAR [14]: 0.576±0.087 resp/s; Maximum %DAR (drug-appropriate responding) ([14]; i.p., at dose of maximum DAR): 97±2 %; Ki (hNET [17]): > 7.6 µM; [3H]NE release % METH maximal effect (hNET [18]): ND Minimal
COc1cc(CCN)c(OC)cc1I [2C-I, 2,5-dimethoxy-4-iodophenethylamine] | > 10 | 0.0079 ± 0.0022 | 82.4 ± 6.4 |  | 32.5 ± 1.5 | 0.233±0.075 | 0.480±0.092 | 30 to 60 | 0.447±0.058 | ND Minimal | 102 ± 4.7 | 5.6 ± 2.1 | > 9.6 | 0.0093 ± 0.0032 | > 8.2 | 0.453±0.169 | 0.95 ± 0.44 | ND Minimal | 0.97 ± 0.43 | 4.9 ± 2 | Maximum %DAR (drug-appropriate responding) [4]: 80±20 %; Ki (human 5-HT2C receptor [19]): 0.0102 ± 0.0017 µM; Doses producing depression of locomotor activity (Male Swiss–Webster mice): 3 to 30 mg/kg; Onset of depressant effects (within, after injection) (Male Swiss–Webster mice): ≤ 10 min; EC50 (human 5-HT2C receptor [20]): 0.0028 ± 0.001 µM; Emax (human 5-HT2C receptor [20]): 79 ± 16%; Maximum %DAR (drug-appropriate responding) ([6]; i.p., at dose of maximum DAR): 38% and 38±17 ^1%; Maximum %DAR (drug-appropriate responding) [13]: 65% and 65±21 ^1%; Dose(s) that decreased response rate ([13]; rat, in vivo): 2.5 to 10 mg/kg; Ki (hNET [17]): > 10 µM; [3H]NE release % METH maximal effect (hNET [18]): ND Minimal
CCSc1cc(OC)c(CCN)cc1OC [2C-T-2, 2,5-dimethoxy-4-ethylthiophenethylamine] | > 10 | 0.0079 ± 0.002 | 87.4 ± 6.5 | 0.0023 ± 0.00069 | 107 ± 6.3 | 0.208±0.117 | 0.170±0.106 | 30 to 50 | 0.748±0.109 | ND Minimal | 76 ± 10 | > 8.6 | > 10 | 0.0125 ± 0.0044 | > 7.2 | 0.448±0.130 | > 9.4 | ND Minimal | 1.74 ± 0.66 | 3 ± 1.3 | Decreased muscle tone (rats affected/tested) (Male Sprague-Dawley rats; 5 mg/kg, LSD-trained rats): 3/6; Adverse effects observed (Male Sprague-Dawley rats; 10 mg/kg): hind limb paralysis, salivation and loss of muscle tone; Rats that failed to complete the first fixed ratio (Male Sprague-Dawley rats; highest dose tested, in each of DMT-, LSD-, MDMA- and METH-trained groups): 5/6; Ki (hNET [17]): > 10 µM; [3H]NE release % METH maximal effect (hNET [18]): ND Minimal
COC(=O)[C@H]1[C@@H](OC(=O)c2ccccc2)C[C@@H]2CC[C@H]1N2C [Cocaine, reference compound] |  |  |  |  |  |  |  |  |  | ND Minimal |  |  |  |  |  |  |  | ND Minimal |  |  | 
CN(C)CCc1c[nH]c2ccccc12 [DMT, N,N,-dimethyltryptamine, reference compound] |  | 0.269 ± 0.061 | 39 ± 4.6 | 0.26 ± 0.12 | 105 ± 3 |  |  |  |  |  | 100 ± 5.2 |  |  | 0.201 ± 0.048 |  |  |  |  |  |  | 
COc1cc(CC(C)N)c(OC)cc1C (stereo not drawn) [DOM, 2,5-dimethoxy-4-methylamphetamine, reference compound] |  | 0.0312 ± 0.0096 | 106 ± 11 |  |  |  |  |  |  |  | 53.8 ± 9.7 |  |  | 0.0081 ± 0.0022 |  |  |  |  | 11.9 ± 5.6 | 13.9 ± 1.5 | 
CCN(CC)C(=O)[C@@H]1C=C2c3cccc4[nH]cc(c34)C[C@H]2N(C)C1 [LSD, lysergic acid diethylamide, reference compound] |  |  |  |  |  |  |  |  |  |  |  |  |  |  |  |  |  |  |  |  | Ki (hDAT [1]; read-out: hDAT [125I]RTI-55 binding Ki, HEK-hDAT cells, cells printed in μM): > 10 µM; 5-HT2A Function IP-1 formation % maximal effect (human 5-HT2A receptor [2]; [22]): 80.3 ± 4.9%; 5-HT2A Function [3H]AA release % maximal effect (human 5-HT2A receptor [3]; [22]): 87.8 ± 3.4%; IC50 (hSERT [9]; read-out: [3H]Serotonin uptake IC50, HEK-hSERT cells, cells printed in μM): > 10 µM; IC50 (hDAT [10]; read-out: [3H]Dopamine uptake IC50, HEK-hDAT cells, cells printed in μM): > 10 µM; IC50 (hNET [12]; read-out: [3H]NE uptake IC50): > 10 µM; Ki (hSERT [15]; read-out: hSERT [125I]RTI-55 binding Ki, HEK-hSERT cells, cells printed in μM): > 10 µM; Ki (hNET [17]; read-out: hNET [125I]RTI-55 binding Ki): 5.6 ± 0.26 µM
CNC(C)Cc1ccc2c(c1)OCO2 (stereo not drawn) [MDMA, 3,4-methylenedioxymethamphetamine, reference compound] |  | 5500 ± 2300 | 40.2 ± 7.1 |  |  |  |  |  |  |  | 64.3 ± 9.4 |  |  | 20.9 ± 4.6 |  |  |  |  | 11.9 ± 1.2 | 36 ± 16 | Emax (human 5-HT2C receptor [20]): 92.2 ± 8%
NCCc1c[nH]c2ccc(O)cc12 [Serotonin, reference compound] |  |  |  |  |  |  |  |  |  |  |  |  |  |  |  |  |  |  |  |  | Average maximal stimulation of IP-1 formation (human 5-HT2A receptor [2]; HEK-5-HT2A cells): 565 ± 46 nM IP1
